Measured values as given in PubChem BioAssay (NCI).
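Where inhibition never reached the appropriate level, the endpoint shown equals the highest concentration tested. Otherwise, values were interpolated linearly from a five-concentration, 48-hour dose response in 96-well plates. At the TGI there is no net growth.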

Key:
Assay in all cases: inhibition of tumour cell growth, NCI panel, 48 h
786-0 renal = test system: 786-0 renal
A549 NSCLC = test system: A549 NSCLC
ACHN renal = test system: ACHN renal
BT-549 breast = test system: BT-549 breast
CAKI-1 renal = test system: CAKI-1 renal
CCRF-CEM leukemia = test system: CCRF-CEM leukemia
COLO 205 colon = test system: COLO 205 colon
DU-145 prostate = test system: DU-145 prostate
EKVX NSCLC = test system: EKVX NSCLC
HCC-2998 colon = test system: HCC-2998 colon
HCT-116 colon = test system: HCT-116 colon
HCT-15 colon = test system: HCT-15 colon
HL-60(TB) leukemia = test system: HL-60(TB) leukemia
HOP-62 NSCLC = test system: HOP-62 NSCLC
HOP-92 NSCLC = test system: HOP-92 NSCLC
HS 578T breast = test system: HS 578T breast
HT29 colon = test system: HT29 colon
IGROV1 ovarian = test system: IGROV1 ovarian
K-562 leukemia = test system: K-562 leukemia
KM12 colon = test system: KM12 colon
LOX IMVI melanoma = test system: LOX IMVI melanoma
M14 melanoma = test system: M14 melanoma
MALME-3M melanoma = test system: MALME-3M melanoma
MCF7 breast = test system: MCF7 breast
MDA-MB-231 breast = test system: MDA-MB-231 breast
MDA-MB-435 = test system: MDA-MB-435
MDA-N = test system: MDA-N
MOLT-4 leukemia = test system: MOLT-4 leukemia
NCI-H226 lung = test system: NCI-H226 lung
NCI-H23 lung = test system: NCI-H23 lung
NCI-H460 lung = test system: NCI-H460 lung
NCI-H522 lung = test system: NCI-H522 lung
NCI/ADR-RES ovarian = test system: NCI/ADR-RES ovarian
OVCAR-3 ovarian = test system: OVCAR-3 ovarian
OVCAR-4 ovarian = test system: OVCAR-4 ovarian
OVCAR-8 ovarian = test system: OVCAR-8 ovarian
PC-3 prostate = test system: PC-3 prostate
RPMI-8226 leukemia = test system: RPMI-8226 leukemia
RXF 393 renal = test system: RXF 393 renal
SF-268 CNS = test system: SF-268 CNS
SF-295 CNS = test system: SF-295 CNS
SF-539 CNS = test system: SF-539 CNS
SK-MEL-2 melanoma = test system: SK-MEL-2 melanoma
SK-MEL-28 melanoma = test system: SK-MEL-28 melanoma
SK-MEL-5 melanoma = test system: SK-MEL-5 melanoma
SK-OV-3 ovarian = test system: SK-OV-3 ovarian
SN12C renal = test system: SN12C renal
SNB-19 CNS = test system: SNB-19 CNS
SNB-75 CNS = test system: SNB-75 CNS
SR leukemia = test system: SR leukemia
SW-620 colon = test system: SW-620 colon
T-47D breast = test system: T-47D breast
TK-10 renal = test system: TK-10 renal
U251 CNS = test system: U251 CNS
UACC-257 melanoma = test system: UACC-257 melanoma
UACC-62 melanoma = test system: UACC-62 melanoma
UO-31 renal = test system: UO-31 renal
OVCAR-5 ovarian = test system: OVCAR-5 ovarian

Measured: TGI

c1coc(C2=Nc3cccc4cccc(c34)N2)c1
40.8 µM: KM12 colon
39.3 µM: SF-539 CNS
60.5 µM: HOP-92 NSCLC
28 µM: COLO 205 colon
44.4 µM: NCI/ADR-RES ovarian
23.2 µM: NCI-H522 lung
64.7 µM: UO-31 renal
56.3 µM: HCT-116 colon
76.9 µM: RXF 393 renal
80.8 µM: PC-3 prostate
65.4 µM: HL-60(TB) leukemia | OVCAR-3 ovarian
57.3 µM: HT29 colon
23 µM: T-47D breast
57.6 µM: ACHN renal
84.9 µM: OVCAR-4 ovarian
> 100 µM: 786-0 renal | A549 NSCLC | BT-549 breast | CAKI-1 renal | CCRF-CEM leukemia | DU-145 prostate | EKVX NSCLC | HCC-2998 colon | HCT-15 colon | HOP-62 NSCLC | HS 578T breast | IGROV1 ovarian | K-562 leukemia | LOX IMVI melanoma | M14 melanoma | MALME-3M melanoma | MCF7 breast | MDA-MB-231 breast | MDA-MB-435 | MDA-N | MOLT-4 leukemia | NCI-H226 lung | NCI-H23 lung | NCI-H460 lung | OVCAR-8 ovarian | RPMI-8226 leukemia | SF-268 CNS | SF-295 CNS | SK-MEL-2 melanoma | SK-MEL-28 melanoma | SK-MEL-5 melanoma | SK-OV-3 ovarian | SN12C renal | SNB-19 CNS | SNB-75 CNS | SR leukemia | SW-620 colon | TK-10 renal | U251 CNS | UACC-257 melanoma | UACC-62 melanoma

CC1=CC(C)(C)[C@H]2O[C@@]3(O)C[C@]4(C)[C@H]5C[C@@](C(C)C)(O[C@H]4c4ccoc4)O[C@H]4[C@]5(C3)O[C@@]1(O)[C@]24O
82 µM: HOP-62 NSCLC
> 100 µM: 786-0 renal | A549 NSCLC | ACHN renal | BT-549 breast | CAKI-1 renal | CCRF-CEM leukemia | COLO 205 colon | DU-145 prostate | EKVX NSCLC | HCC-2998 colon | HCT-116 colon | HCT-15 colon | HL-60(TB) leukemia | HOP-92 NSCLC | HS 578T breast | HT29 colon | IGROV1 ovarian | K-562 leukemia | KM12 colon | LOX IMVI melanoma | M14 melanoma | MALME-3M melanoma | MCF7 breast | MDA-MB-231 breast | MDA-MB-435 | MDA-N | MOLT-4 leukemia | NCI-H226 lung | NCI-H23 lung | NCI/ADR-RES ovarian | OVCAR-3 ovarian | OVCAR-4 ovarian | OVCAR-5 ovarian | OVCAR-8 ovarian | PC-3 prostate | RPMI-8226 leukemia | RXF 393 renal | SF-268 CNS | SF-295 CNS | SF-539 CNS | SK-MEL-2 melanoma | SK-MEL-28 melanoma | SK-MEL-5 melanoma | SK-OV-3 ovarian | SN12C renal | SNB-19 CNS | SR leukemia | SW-620 colon | T-47D breast | TK-10 renal | U251 CNS | UACC-257 melanoma | UACC-62 melanoma | UO-31 renal
45.8 µM: NCI-H522 lung
64.6 µM: SNB-75 CNS
